These results are taken from US20240043860A1, “NOVEL HYDROXYPHENYLPYRUVATE DIOXYGENASE POLYPEPTIDES AND METHODS OF USE THEREOF” (Syngenta Crop Protection AG, priority 2020, published 2024).

The subject of one experiment is wild-type tobacco plants. In words: spray test, herbicidal damage scoring. The class given is in vivo. The settings on record: Table 4.1, 7 days after treatment, 100=complete death, 0=no damage, one value per plant/event. The procedure: (§1) Once rooted, plantlets are transferred from agar and potted into 50% peat, 50% John Innes Soil No. 3 or, for example, MetroMix® 380 soil (Sun Gro Horticulture, Bellevue, WA) with slow-release fertilizer in 3 inch round or 4 inch square pots and left regularly watered to establish for 8-12d in the glass house. Glass house conditions are about 24-27° C. day; 18-21° C. night and approximately a 14h (or longer in UK summer) photoperiod.
(§2) About 20-30 TO events are produced for a number of HPPD variant genes.
(§3) Tables 4.1-4.9 show the herbicidal damage scoring on transgenic tobacco plants 7 days after treatment. A score of 100=complete death and 0=no damage observed.

Experiment [1] relates to transgenic tobacco plants expressing mutant HPPD SEQ ID NO: 14. Kind of experiment: spray test, herbicidal damage scoring. The class given is in vivo. The conditions noted are these: for tolerance compared to SEQ ID 122 expressing plants: SEQ ID 14 plants, 800 g/ha Mesotrione, 400 g/ha Tembotrione or 400 g/ha Isoxaflutole (Table 3.2). On the procedure: Avena sativa HPPD or orthologues and variants thereof, for example SEQ IDs 1-63 and 122-127, were expressed in transgenic tobacco. DNA sequences that encode these polypeptides (optimized for tobacco or, optionally, codon optimized according to a target crop such as soybean) were prepared synthetically. Each sequence was designed to include a 5′ fusion with TMV omega 5′ leader sequence such that they are flanked at the 5′ end with XhoI and at the 3′ end with KpnI to facilitate direct cloning into a suitable binary vector for Agrobacterium-based plant transformation.
In one example, the TMV omega 5′ leader and a HPPD encoding gene of interest is excised using XhoI/KpnI and cloned into similarly digested binary vector pBIN 19 (Bevan, Nucl. Acids Res. (1984) behind a double enhanced 35S promoter ahead of a NOS 3′ transcription terminator and then transformed into E. coli DH5 alpha competent cells. DNA recovered from the E. coli is used to transform Agrobacterium tumefaciens LBA4404, and transformed bacteria are selected on media contain rifampicin and kanamycin. Tobacco tissue is subjected to Agrobacterium-mediated transformation using methods well described in the art or as described herein. For example, a master plate of Agrobacterium tumefaciens containing the HPPD expressing the binary vector is used to inoculate 10 ml LB (L broth) containing 100 mg/l Rifampicin plus 50 mg/l Kanamycin using a single bacterial colony. This is incubated overnight at 28° C. shaking at 200 rpm. This entire overnight culture is used to inoculate a 50 ml volume of LB containing the same antibiotics. Again this is cultured overnight at 28° C. shaking at 200 rpm. The Agrobacterium cells are pelleted by centrifuging at 3000 rpm for 15 minutes and then resuspended in MS (Murashige and Skoog) medium containing 30 g/l sucrose, pH 5.9 to an OD […]=0.6. This suspension is dispensed in 25 ml aliquots into petri dishes.
Once rooted, plantlets are transferred from agar and potted into 50% peat, 50% John Innes Soil No. 3 or, for example, MetroMix® 380 soil (Sun Gro Horticulture, Bellevue, WA) with slow-release fertilizer in 3 inch round or 4 inch square pots and left regularly watered to establish for 8-12d in the glass house. Glass house conditions are about 24-27° C. day; 18-21° C. night and approximately a 14h (or longer in UK summer) photoperiod. Humidity is adjusted to ˜65% and light levels used are up to 2000 umol/m^2 at bench level. Once new tissue emerged and plants reach the 2-4 leaf stage, some of the clones from each event are sprayed with an HPPD inhibitor of interest selected from the herbicides listed in reference to Example 1. […] For example Callisto® is mixed in water with 0.2-0.25% X-77 surfactant and sprayed from a boom on a suitable track sprayer moving at 2 mph in a DeVries spray chamber (Hollandale, MN) with the nozzle about 2 inches from the plant tops.
Plants are assessed for damage and scored at, for example, 7 and 14 days after treatment (DAT). About 20-30 TO events are produced for a number of HPPD variant genes.
Plants of events showing the least damage are grown to flowering, then bagged and allowed to self. […] Single copy events amongst the Ti plant lines are identified by their 3:1 segregation ratio (with respect to kanamycin and/or herbicide) and by quantitative RT-PCR. Seed from the thus selected Ti tobacco (var. Samsun) lines are sown in 3 inch diameter pots containing 50% peat and 50% John Innes Soil No. 3. After growth to the 3 leaf stage, plants are sprayed as described above in order to test for herbicide tolerance relative to like-treated non-transgenic tobacco plants, and also in comparison with like-treated Ti plants expressing the base HPPD SEQ IDs 122-125. HPPD expression levels were monitored by Western analysis. […]

The subject of experiment [2] is HPPD variant APESV V200 (SEQ ID NO: 6). Kind of experiment: coupled HGO assay. The class given is biochemical, Apera spica-venti. The procedure: (§4) DNA sequences (SEQ ID NOs: 65-118, 128, 130, 131, and 133), synthesized for expression in E. coli, by GeneWiz (USA) to encode HPPD variants (SEQ ID NOs: 5-58, 122, 124, 125 and 127) derived from either Avena sativa (SEQ ID NOs: 122, 124), Alopecurus myosuroides (SEQ ID NO: 126) or Apera spica-venti (SEQ ID NOs: 123, 125) were transformed into E coli BL21 (DE3) (New England Biolabs) and grown in 0.5 ml Terrific broth +50 ug/ml Kanamycin media in a 96-deepwell block overnight (37° C., 900rpm). 25 ul of the overnight cultures were inoculated into fresh 96-deepwell block containing 1 ml Formedium Autoinduction Media (AIM). The AIM cultures were grown for 3h at 37° C. (900rpm) and then transferred to 20° C. overnight (900rpm) to allow protein expression. The overnight cultures were centrifuged and 500 ul of Cellytic B (Sigma Aldrich) was added to resuspend the cell pellets. The coupled HGO assay (Siehl et al, 2014) is used to generate IC50 values for the HPPD variants of interest.
(§5) E. coli BL21 (DE3) cells were transformed with a pET24a vector containing a C-terminally his-tagged Arabidopsis HGO gene, grown and induced overnight as described for the HPPD variants above. The cell pellet was resuspended in phosphate buffered saline at pH 7.4 containing 10% Glycerol, 1mm Tris[2-carboxyethyl] phosphine-HCl (TCEP) plus 30 mM Imidazole and lysed using lysozyme/benzonase. The extract was clarified by low speed centrifugation and purified in the same buffer down a 1 ml His Gravitrap column. The bound HGO was eluted in 0.25M imidazole and the fractions pooled and beaded into liquid nitrogen. All procedures apart from the centrifugation and beading steps were carried out under a nitrogen atmosphere.
(§6) The coupled HGO assay is carried out by adding 10 ul of HPPD extract to a 96-well plate and then adding 40 ul of reaction buffer (50 mM Bis Tris Propane, pH7.0, 25 mM sodium-L-ascorbate, 400μM mercaptoethanol, 50 μM Fe(II)SO4). The plates are left to incubate for 5 minutes on ice. […] 200 ul of HPP/HGO (197 μM hydroxyphenylpyruvic acid, 16 μl/ml Homogentisic Acid Oxidase in reaction buffer as described above) buffer is then added to the well and the reaction is regularly monitored (e.g. every 30 seconds-5 minutes) for absorbance at 330 nm for a given time period (e.g., for between 15-60 minutes). The data can then be used to calculate the IC50 value for each HPPD variant of interest.

Experiment [3] has as its system HPPD variant APESV V209 (SEQ ID NO: 18). In words: coupled HGO assay. The class given is biochemical, Apera spica-venti. The procedure:
as §4, §5, §6

In experiment [4] the test system is HPPD variant ALOME V162 (SEQ ID NO: 126). In words: coupled HGO assay. The class given is biochemical, Alopecurus myosuroides. On the procedure:
as §4, §5, §6

The subject of experiment [5] is HPPD variant ALOME V200 (SEQ ID NO: 7). Kind of experiment: coupled HGO assay. The class given is biochemical, Alopecurus myosuroides. The procedure:
as §4, §5, §6

Experiment [6] concerns HPPD variant ALOME V209 (SEQ ID NO: 19). In words: coupled HGO assay. The class given is biochemical, Alopecurus myosuroides. The procedure:
as §4, §5, §6

For experiment [7], the system named is transgenic tobacco plants expressing mutant HPPD SEQ ID NO: 122. In words: spray test, herbicidal damage scoring. The class given is in vivo. The settings on record: Table 3.2; 14 days after treatment; best events, SEQ ID 122; 100=complete death, 0=no damage; one value per event.
Experiment [8] has the same test system. In words: spray test, herbicidal damage scoring. The class given is in vivo. The conditions noted are these: Table 4.4; 7 days after treatment; SEQ ID NO: 122; 100=complete death, 0=no damage; one value per event. On the procedure:
(§7) DNA sequences that encode these polypeptides (optimized for tobacco or, optionally, codon optimized according to a target crop such as soybean) were prepared synthetically. Each sequence was designed to include a 5′ fusion with TMV omega 5′ leader sequence such that they are flanked at the 5′ end with XhoI and at the 3′ end with KpnI to facilitate direct cloning into a suitable binary vector for Agrobacterium-based plant transformation.
(§8) For example, a master plate of Agrobacterium tumefaciens containing the HPPD expressing the binary vector is used to inoculate 10 ml LB (L broth) containing 100 mg/l Rifampicin plus 50 mg/l Kanamycin using a single bacterial colony. This is incubated overnight at 28° C. shaking at 200 rpm. This entire overnight culture is used to inoculate a 50 ml volume of LB containing the same antibiotics. Again this is cultured overnight at 28° C. shaking at 200 rpm. The Agrobacterium cells are pelleted by centrifuging at 3000 rpm for 15 minutes and then resuspended in MS (Murashige and Skoog) medium containing 30 g/l sucrose, pH 5.9 to an OD […]=0.6. This suspension is dispensed in 25 ml aliquots into petri dishes.
as §1, §2
(§9) Single copy events amongst the Ti plant lines are identified by their 3:1 segregation ratio (with respect to kanamycin and/or herbicide) and by quantitative RT-PCR. Seed from the thus selected Ti tobacco (var. Samsun) lines are sown in 3 inch diameter pots containing 50% peat and 50% John Innes Soil No. 3. […] HPPD expression levels were monitored by Western analysis.
as §3

Experiment [9] deals with transgenic tobacco plants expressing mutant HPPD SEQ ID NO: 124. In words: spray test, herbicidal damage scoring. The class given is in vivo. The settings on record: Table 4.2, 7 days after treatment, 100=complete death, 0=no damage, one value per event. The procedure: as §7, §8, §1, §2, §9, §3
Experiment [10] concerns transgenic tobacco plants expressing mutant HPPD SEQ ID NO: 125. Kind of experiment: spray test, herbicidal damage scoring. The class given is in vivo. The settings on record: Table 4.3, 7 days after treatment, 100=complete death, 0=no damage, one value per event. The procedure: as §7, §8, §1, §2, §9, §3

In general, IC50 refers to the point on the concentration scale where inhibition reaches its midpoint. Read a high IC50 as a need for much substance.

Each structure is given as a SMILES string. Several values for one entry are separate records, joined by “and”; a condition that tells them apart may be missing. Equal values may be shown once.

Take `CS(=O)(=O)c1cc(C(F)(F)F)ccc1C(=O)c1cnoc1C1CC1` [Isoxaflutole, isoxaflutole]: in the experiment on wild-type tobacco plants, the “herbicidal damage scoring, Isoxaflutole (400 gai/ha)” value was 95 and 97 and 96. Further, the “tolerance compared to SEQ ID 122 expressing plants” value in experiment [1] is listed as “equally tolerant”.

As to `CS(=O)(=O)c1ccc(C(=O)C2C(=O)CCCC2=O)c([N+](=O)[O-])c1` [Mesotrione, mesotrione], the IC50 in experiment [2] amounted to 32.2 µM; in experiment [3], 44.8 µM; in [4], 12.8 µM; in [5], 31.9 µM; in experiment [6], 31.9 µM. Besides, in experiment [1], the “tolerance compared to SEQ ID 122 expressing plants” value is recorded as “equally tolerant”.

As to `CS(=O)(=O)c1ccc(C(=O)C2C(=O)CCCC2=O)c(Cl)c1COCC(F)(F)F` [Tembotrione, tembotrione], the “herbicidal damage scoring, Tembotrione (400 gai/ha)” value is 97 and 95 and 98 in the experiment on wild-type tobacco plants; 25 and 30 in experiment [1] (Table 3.2, 14 days after treatment, best events, SEQ ID 14, 100=complete death, 0=no damage, one value per event); 45 and 50 and 55 and 65 and 40 in experiment [7]. Moreover, in experiment [1], the “tolerance compared to SEQ ID 122 expressing plants” value is on record as “increased tolerance”.

Turning to `Cc1c(C(=O)c2cnn(C)c2O)ccc(S(C)(=O)=O)c1C1=NOCC1` [Topramezone, topramezone], the “herbicidal damage scoring, Topramezone (100 g/ha)” value with wild-type tobacco plants was 98 and 97 and 99 and 95; in experiment [8], 0; in experiment [9], 0; in experiment [10], 0.
